Test results taken from US20250368638A1, “BICYCLIC INHIBITORS OF NICOTINAMIDE […], COMPOSITIONS AND USES THEREOF” (President and Fellows of Harvard College, priority 2021, published 2025).
Where “and” joins values, the source holds several entries; their conditions need not be identical. Identical values can stand only once.

Key:
[1] = Permeability assay in Caco-2 cells; conditions: human
Method: Preparation of Caco-2 Cells: 50 μL and 25 mL of cell culture medium were added to each well of the Transwell insert and reservoir, respectively. And then the HTS transwell plates were incubated at 37° C., 5% CO2 for 1 hour before cell seeding. […] Cell culture medium was replaced every other day, beginning no later than 24 hours after initial plating.
Preparation of Stock Solutions: The stock solutions of control and test compounds were prepared in DMSO at the concentration of 10 mM. Digoxin, Prazosin and propranolol were used as control compounds in this assay.
Assay Procedures: The Caco-2 plate was removed from the incubator and washed twice with pre-warmed HBSS (10 mM HEPES, pH 7.4), and then incubated at 37° C. for 30 minutes. The stock solutions of controls and Test compounds were diluted in DMSO to get 1 mM solutions and then diluted with HBSS (10 mM HEPES, pH 7.4) to get 5 μM working solutions. The final concentration of DMSO in the incubation system was 0.5%. To determine the rate of drug transport in the apical to basolateral direction. Add 125 μL of the test compounds to the Transwell insert (apical compartment), and transfer 50 μL sample (DO sample) immediately from the apical compartment to a new 96-well plate. Fill the wells in the receiver plate (basolateral compartment) with 235 μL of HBSS (10 mM HEPES, pH 7.4). To determine the rate of drug transport in the basolateral to apical direction. Add 285 μL of the test compounds to the receiver plate wells (basolateral compartment), and transfer 50 μL sample (DO sample) immediately from the basolateral compartment to a new 96-well plate. Fill the Transwell insert (apical compartment) with 75 μL of HBSS (10 mM HEPES, pH 7.4). Time 0 samples were prepared by transferring 50 μL of 5 μM working solution to wells of the 96-deepwell plate, followed by the addition of 200 μL cold acetonitrile containing appropriate internal standards (100 nM alprazolam, 200 nM labetalol, 200 nM caffeine and 200 nM diclofenac). The plates were incubated at 37° C. for 2 hours. […] Samples were vortexed for 5 minutes and then centrifuged at 3,220 g for 40 minutes. An aliquot of 100 μL of the supernatant was mixed with 100 μL of ultra-pure water to use for LC-MS/MS analysis. To determine the Lucifer Yellow leakage after 2 hour transport period, stock solution of Lucifer yellow was prepared in water and diluted with HBSS (10 mM HEPES, pH 7.4) to reach the final concentration of 100 μM. 100 μL of the Lucifer yellow solution was added to each Transwell insert (apical compartment), followed by filling the wells in the receiver plate (basolateral compartment) with 300 μL of HBSS (10 mM HEPES, pH 7.4). The plates were incubated at 37° C. for 30 minutes. 80 μL samples were removed directly from the apical and basolateral wells (using the basolateral access holes) and transferred to wells of new 96 wells plates.

recombinant human NNMT = biological target: T1, recombinant human NNMT (Homo sapiens, UniProt P40261); assay: in vitro NNMT enzyme inhibition assay (Promega MTase-Glo Methyltransferase Assay); type: biochemical; conditions: 40 nM recombinant human NNMT, 8 μM nicotinamide, 6.7 μM SAM, 20 minutes
T1 sequence (P40261 1-264): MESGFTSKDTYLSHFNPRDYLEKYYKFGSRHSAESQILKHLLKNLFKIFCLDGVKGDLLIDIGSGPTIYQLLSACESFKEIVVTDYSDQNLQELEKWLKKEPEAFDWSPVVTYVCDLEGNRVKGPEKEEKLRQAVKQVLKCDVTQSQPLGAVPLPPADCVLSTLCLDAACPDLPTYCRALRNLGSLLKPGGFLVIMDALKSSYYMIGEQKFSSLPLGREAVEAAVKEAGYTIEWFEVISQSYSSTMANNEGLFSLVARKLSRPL
Method: NNMT biochemical activity for was evaluated using the Promega Mtase-Glo Methyltransferase Assay kit. Assays were performed in a white, flat-bottomed 96 well plate. […] Reactions were performed for 20 minutes at room temperature. MTase-Glo reagent and MTase-Glo detection solution were added according to manufacturer's instructions and luminescence signal measured with a SpectraMax i3 plate reader and data analyzed with GraphPad Prism version 9. Scheme 16 depicts a visual summary of the Promega MTase-Glo Methyltransferase assay used to assess biochemical activity of novel inhibitors.

## C[C@@H]1Cc2cc(C(N)=O)cnc2N1 [Compound 11, (2R)-2-methyl-2,3-dihydro-1H-pyrrolo[2,3-b]pyridine-5-carboxamide]
[1]; Caco-2, pH 7.4
  Papp A→B at 2 h, 5 μM: 27.5 ×10⁻⁶ cm/s
  Papp B→A at 2 h, 5 μM: 21.8 ×10⁻⁶ cm/s
  efflux ratio at 2 h, 5 μM: 0.79
[1]; Caco-2, pH 7.4, Recovery (%) AP-BL
  recovery at 2 h, 5 µM: 102%
[1]; Caco-2, pH 7.4, Recovery (%) BL-AP
  recovery at 2 h, 5 µM: 106%
Recombinant human NNMT
  IC50: 35 nM and 35 to 42 nM
